Reference: patent publication US20070275147A1, “SYNTHETIC SWEETENER COMPOSITIONS WITH IMPROVED TEMPORAL PROFILE AND/OR FLAVOR PROFILE, METHODS FOR THEIR FORMULATION, AND USES” (THE COCA-COLA COMPANY, priority 2005, published 2007)

Tests used:
[1] = system: panel of experts in the sensory evaluation of foods and beverages; experiment: Sensory evaluation of sweetness onset and sweetness linger by expert panel; type: in vivo, human; design: key to Sweetness Linger: 0: no sweetness linger; 1: very slight sweetness linger; 2: slight sweetness linger; 3: moderate sweetness linger; 4: moderately high sweetness linger; 5: high sweetness linger; key to Sweetness Onset: 1: quick onset; 2: moderate onset; 3: slow onset; settings: for Sweetness Linger: rating scale 0-5, sweetness 2-3 min after water rinse, for ranges the lowest rating of all levels is reported; for Sweetness Onset: rating scale 1-3, ca. 10 mL sample tasted and expectorated, sucrose and neotame controls for calibration
Method: An exemplary method of sensory evaluation is provided in the following protocol, similar to that described hereinabove. In this test protocol, none of the samples were swallowed. All samples were expectorated and the mouth was rinsed with water after the tasting. In step 1, the 10% sucrose control sample was tasted by distributing ca. 10 mL of sample quickly throughout the oral cavity, wherein the maximal “Sweetness Intensity” was measured. This intensity is defined as a 10 on a 0-15 scale where 0 is defined as no perceptible sweetness and 15, the sweetness of 15% sucrose. The “Overall Quality” of the taste was also measured in the sucrose control and was defined as a 6 on a 1-9 scale. Immediately upon sensing maximal sweetness, the sample was expectorated, the mouth was rinsed with water and the rate of sweetness decay (“Sweetness Linger”) and “Sweetness Onset” were measured, where attention was focused on the sweetness 2-3 min after the water rinse. The sweetness linger was rated by a panel of experts in the sensory evaluation of foods and beverages using the following scale: 0=no sweetness linger, 1=very slight sweetness linger, 2=slight sweetness linger, 3=moderate sweetness linger, 4=moderately high sweetness linger, 5=high sweetness linger. The sweetness onset was rated by a panel of experts using the following scale: 1=quick onset, 2=moderate onset, 3 slow onset. After sample tasting was complete, a salty oyster cracker was chewed followed by a water rinse, and at least 5 minutes followed before tasting the next sample.
The “Sweetness Linger” rating for sucrose observed by this protocol was defined as 0 and the “Sweetness Onset” was defined as 1. The Sweetness Onset and Sweetness Linger of a neotame control sample were defined as 3 and 5, respectively.
Following calibration with the sucrose and neotame control samples, the experimental samples were tasted by the same protocol, always allowing sufficient time between samples to ensure re-equilibration of the sensory system. Re-tasting of control samples during the course of the experiment was allowed and encouraged.
The comparison taste test was performed between two controls and addition of sweet taste improving additive on the onset and/or sweetness linger.
In Examples A1-A7, where there are ranges provided, the beverage samples were made with 5-7 levels from the top to the bottom of the range, using a 1:1 dilution of the corresponding sweet taste improving compositions. The sweetness linger rating reported was the most sugar-like in sweetness linger (the lowest numerical value) attained of all the samples (i.e., the shortest sweetness linger).

Osmolarity of solution = type: physicochemical; settings: sucrose at 10%
From the text: Average concentrations of inorganic ions present in saliva, which are responsible for nearly all of the osmolarity of saliva, are as illustrated in Table 1 below. From the data shown, it is clear that saliva typically has an osmolarity of 70 mOsM. Sucrose at 10%, however, is 292 mOsM, more than 4-fold higher, and therefore will cause significant shrinkage of taste bud cell volume and signaling to the central nervous system (CNS). Osmolarity refers to the measure of osmoles of solute per liter of solution, wherein osmole is equal to the number of moles of osmotically active particles in an ideal solution (e.g., a mole of glucose is one osmole), whereas a mole of sodium chloride is two osmoles (one mole of sodium and one mole of chloride). Thus, in order to improve in the quality of taste of synthetic sweeteners, the osmotically active compounds or the compounds which impart osmolarity must not introduce significant off taste to the formulation.

Row | SMILES | Sweetness Linger [1] | Sweetness Onset [1] | Sweetness Linger ([1]; listed as sugar) | osmolarity (Osmolarity of solution) [mOsM]
1 | COC(=O)[C@H](Cc1ccccc1)NC(=O)[C@H](CC(=O)O)NCCC(C)(C)C [neotame] | 5 | 3 | – | –
2 | OC[C@H]1O[C@@](CO)(O[C@H]2O[C@H](CO)[C@@H](O)[C@H](O)[C@H]2O)[C@@H](O)[C@@H]1O [sucrose] | 0 | 1 | 1 | 292
